Results on three molecules are retold here after PMC11673488, “Enzyme Inhibitory, Physicochemical, and Phytochemical Properties and Botanical Sources of Honey, Bee Pollen, Bee Bread, and Propolis Obtained from the Same Apiary” (Antioxidants, 2024).

Counter-ions that a name gives are not always drawn.

What all share (assay type): biochemical
Experiment [1] relates to T1, adenosine deaminase (ADA).
T1 construct: method of Blum and Schwedt
As to the kind of experiment: ADA assay (Blum and Schwedt). As to conditions: inhibitor in […] ethanol; unreliable (extrapolated beyond highest tested […]). The text has this:
ADA assay (Blum and Schwedt) on adenosine deaminase (ADA)

A further experiment deals with T2, neuraminidase.
T2 construct: gene nanI; method of Myers et al
Nature of the experiment: neuraminidase assay (Myers et al.). The settings on record: inhibitor in […] ethanol. The text has this: neuraminidase assay (Myers et al.) on neuraminidase

The target of the next experiment is T3, lipase.
T3 construct: gene PNLIP; p-nitrophenyl caprate assay
As to the kind of experiment: p-nitrophenyl caprate hydrolysis. As to conditions: substrate p-nitrophenyl caprate; inhibitor in […] ethanol. From the text: p-nitrophenyl caprate hydrolysis on lipase

Turning to `CCCCCC[C@H]([C@H](C)O)n1cnc2c(N)ncnc21` [EHNA.HCl], in experiment [1], the “Adenosine Deaminase / IC50 (mg/mL) *” value is reported as 0.61 ± 0.05 mg/mL.
As to `O=c1c(O)c(-c2ccc(O)c(O)c2)oc2cc(O)cc(O)c12` [Quercetin dihydrate], the “Neuraminidase / IC50 (mg/mL) *” value on neuraminidase is 0.00035 ± 0.00005 mg/mL.
`CCCCCCCCCCC[C@@H](C[C@@H]1OC(=O)[C@H]1CCCCCC)OC(=O)[C@H](CC(C)C)NC=O` [Orlistat]: the “Lipase / IC50 (mg/mL) *” value on lipase is listed as 0.00245 ± 0.00010 mg/mL.
